Source: patent US20250171462A1 (NICO Therapeutics, Inc., priority 2022, published 2025)
pIC50: −log10 of the molar value. Like-named read-outs stand apart in the source and are kept apart here.

Molecular target: T1, full-length SARM1 (FL-SARM1) (Homo sapiens, UniProt Q6SZW1)
T1 sequence (Q6SZW1 28-724): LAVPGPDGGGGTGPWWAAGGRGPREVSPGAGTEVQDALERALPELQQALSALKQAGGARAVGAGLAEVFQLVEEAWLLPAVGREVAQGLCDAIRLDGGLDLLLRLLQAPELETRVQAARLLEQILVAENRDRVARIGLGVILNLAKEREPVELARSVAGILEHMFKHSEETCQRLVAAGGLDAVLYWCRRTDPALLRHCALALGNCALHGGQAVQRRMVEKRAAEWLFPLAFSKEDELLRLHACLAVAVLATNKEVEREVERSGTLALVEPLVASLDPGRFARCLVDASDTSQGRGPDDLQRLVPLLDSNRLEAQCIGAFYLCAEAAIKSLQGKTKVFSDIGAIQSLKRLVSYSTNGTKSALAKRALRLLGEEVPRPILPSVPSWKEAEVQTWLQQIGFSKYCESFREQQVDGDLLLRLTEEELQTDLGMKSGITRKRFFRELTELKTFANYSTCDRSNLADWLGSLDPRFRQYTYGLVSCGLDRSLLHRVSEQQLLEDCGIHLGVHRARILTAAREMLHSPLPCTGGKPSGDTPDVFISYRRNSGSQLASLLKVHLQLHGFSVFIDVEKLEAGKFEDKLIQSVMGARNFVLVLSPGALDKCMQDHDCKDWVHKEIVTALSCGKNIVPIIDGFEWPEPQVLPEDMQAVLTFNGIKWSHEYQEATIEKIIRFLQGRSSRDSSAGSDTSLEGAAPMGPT
Assay: FL-SARM1 cellular lysate assay (NAD/NADH-Glo detection of remaining NAD+, NMN-activated)
Conditions: for IC50: Activity (μM) (IC50)

[1] = read-out: Activity (IC50 class), 11 point curve
[2] = Activity (IC50 class), 11 point curve

Compound	IC50 (11 point curve)	pIC50 [1]	pIC50 [2]
Cc1ccc(NC(=O)N2C3C[C@@H](C)C[C@H]2C3)cc1-c1nccc(OC(F)F)n1 [Example 233, cis-N-[3-[4-(difluoromethoxy)pyrimidin-2-yl]-4-methylphenyl]-3-methyl-6-azabicyclo[3.1.1]heptane-6-carboxamide]	0.1 µM	6.00 to 10.00	
CC(=O)N1C[C@H](c2ccccc2)C[C@@H]1C(=O)Nc1ccc(C)c(-c2ncc(F)cn2)c1 [Example 321]	24 µM		< 5.00
Cc1ccc(NC(=O)N2[C@@H]3C[C@@H](C)C[C@H]2C3)cc1-c1nccnc1F [Example 230, cis-N-[3-(3-fluoropyrazin-2-yl)-4-methylphenyl]-3-methyl-6-azabicyclo[3.1.1]heptane-6-carboxamide]	0.04 µM	6.00 to 10.00	
Cc1ccc(NC(=O)N2C3C[C@@H]2CC[C@@H]3C)cc1-c1ccccn1 (single isomer, unassigned) [Example 47, cis-2-methyl-N-(4-methyl-3-(pyridin-2-yl)phenyl)-6-azabicyclo[3.1.1]heptane-6-carboxamide]	0.06 µM	6.00 to 10.00	
Cc1ccc(NC(=O)[C@H]2C[C@H]3C[C@H]3N2)cc1-c1ncc(F)cn1 [Example 170, (1R,3R,5R)—N-(3-(5-fluoropyrimidin-2-yl)-4-methylphenyl)-2-azabicyclo[3.1.0]hexane-3-carboxamide]	2.7 µM		5.00 to 6.00
Cc1ccc(NC(=O)N2C3CC2c2ncnn2C3)cc1-c1ccccn1 (centres unmarked) [Example 80, N-(4-methyl-3-pyridin-2-ylphenyl)-3,5,6,9-tetrazatricyclo[6.1.1.02,6]deca-2,4-diene-9-carboxamide]	13 µM		< 5.00
Cc1ccc(NC(=O)OCCc2ccccc2)cc1-c1ncccn1 [Example 178, Phenethyl(4-methyl-3-(pyrimidin-2-yl)phenyl)carbamate]	4.3 µM		5.00 to 6.00
Cc1ccc(NC(=O)N2[C@@H]3C[C@@H](C)C[C@@]2(COC(F)F)C3)cc1-c1ncc(F)cn1 (racemic) [Example 227, cis-1-(difluoromethoxymethyl)-N-[3-(5-fluoropyrimidin-2-yl)-4-methylphenyl]-3-methyl-6-azabicyclo[3.1.1]heptane-6-carboxamide]	0.02 µM	6.00 to 10.00	
Cc1ccc(NC(=O)N2C3CC(C)CC2(C(C)O)C3)cc1-c1ncc(F)cn1 (single isomer, unassigned) [Example 194, cis-N-(3-(5-fluoropyrimidin-2-yl)-4-methylphenyl)-1-(1-hydroxyethyl)-3-methyl-6-azabicyclo[3.1.1]heptane-6-carboxamide]	0.01 µM	6.00 to 10.00	
Cc1ccc(NC(=O)[C@H]2C3CC(F)(F)C[C@H]32)cc1-c1cccnn1 (stereo partly drawn) [Example 288, cis-3,3-difluoro-N-(4-methyl-3-pyridazin-3-ylphenyl)bicyclo[3.1.0] hexane-6-carboxamide]	15 µM		< 5.00
COC(C)[C@@]12CC(C[C@@H](C)C1)N2C(=O)Nc1ccc(C)c(-c2ncc(F)cn2)c1 (single isomer, unassigned) [Example 191, cis-N-(3-(5-fluoropyrimidin-2-yl)-4-methylphenyl)-1-(1-methoxyethyl)-3-methyl-6-azabicyclo[3.1.1]heptane-6-carboxamide]	0.0009 µM	6.00 to 10.00	
Cc1cc(F)c(NC(=O)N2C3C[C@@H](C)C[C@H]2C3)cc1-c1ncc(F)cn1 [Example 254, cis-N-[2-fluoro-5-(5-fluoropyrimidin-2-yl)-4-methylphenyl]-3-methyl-6-azabicyclo[3.1.1]heptane-6-carboxamide]	0.02 µM	6.00 to 10.00	
Cc1ccc(NC(=O)N2[C@@H]3C[C@H](C)C[C@H]2C3)cc1-c1ccccn1 [Example 10, trans-3-Methyl-N-(4-methyl-3-(pyridin-2-yl)phenyl)-6-azabicyclo[3.1.1]heptane-6-carboxamide]	0.01 µM	6.00 to 10.00	
O=C(Nc1ccc(C(F)(F)F)c(-c2ncc(F)cn2)c1)N1CCCC2CC2C1 (centres unmarked) [Example 304, N-(3-(5-fluoropyrimidin-2-yl)-4-(trifluoromethyl)phenyl)-3-azabicyclo[5.1.0]octane-3-carboxamide]	2.4 µM		5.00 to 6.00
Cc1cc(F)c(NC(=O)N2C3CCCC2C3)cc1-c1cc(Cl)cnn1 [Example 247, N-[5-(5-chloropyridazin-3-yl)-2-fluoro-4-methylphenyl]-6-azabicyclo[3.1.1]heptane-6-carboxamide]	0.4 µM	6.00 to 10.00	
Cc1cc(F)c(NC(=O)N2[C@@H]3C[C@@H](C)C[C@H]2C3)cc1-c1ccccn1 [Example 255, cis-N-(2-fluoro-4-methyl-5-pyridin-2-ylphenyl)-3-methyl-6-azabicyclo[3.1.1]heptane-6-carboxamide]	0.02 µM	6.00 to 10.00	
